Several values for one entry are separate records, joined by “and”; a condition that tells them apart may be missing. Identical values can stand only once. Like-named read-outs stand apart in the source and are kept apart here. Peptide text beside a SMILES is read from it. * marks the point of attachment. X1 = CC(=O)N[C@H]1C(*)O[C@H](CO)[C@@H](O)[C@@H]1O
How the values were obtained:
[1] = Stability of each 7-peptide compound in rat whole blood; format: in vitro ADME; settings: for recovery: rat whole blood, 37° C., 1000 ng/mL, read-out: Recovery rate (%) M±SD
Method: Preparation of the test product: SP and SIPI-D00 were dissolved and diluted with an appropriate amount of 50% acetonitrile water containing 0.1% formic acid to obtain a working solution with a concentration of 200 µg/mL.
• 1) Fresh rat whole blood was added to the EP tube, and shaken gently to mix well; • 2) The EP tube was pre-incubated in a 37° C. water bath for 5 minutes; • 3) Each compound was added to start the reaction and continued to incubate at 37° C.; • 4) 50 µL sample was taken from the sample tube at 0, 2 min, 5 min, 10 min, 30 min, and 60 min, respectively, into the stop tube, 50 µL of ice-cold 7% perchloric acid was added, and shaken to stop the reaction; • 5) Sample was centrifuged at 13000 r/min for 10 min, 75 µL supernatant was aspirated, 60 µL1.25% ammonia water was added and mixed well. After filtered with […] microporous membrane, 20 µL sample was taken for LC-MS/MS analysis.

[2] = Plasma drug concentrations and pharmacokinetics after a single intravenous or subcutaneous injection of SIPI-G9 in SD rats; settings: for level at 3 h: 180 min; for level at 4 h: 240 min; for clearance: CL; for MRT last: MRT0-t
Method: Routes: single back subcutaneous injection and single tail vein injection;
Orbital blood was collected at different time points before and after administration. […] High concentration samples were diluted with blank plasma.
Column: SHIM-PACK GISS C18 (2.1 × 100 mm, 1.9 µm); injection volume: 20 µL; mobile phase: phase A: 0.2% acetic acid in water; phase B: methanol, gradient elution (see Table 16 for details);
The ion source is electrospray ionization source (ESI); the drying gas (N2) temperature is 550° C.; the electrospray voltage is 5500 V; the detection method is positive ion detection; the scanning method is the selective reaction monitoring (MRM) method, and the scanning time is 0.15 s.
50 µL plasma was taken and 5 µL internal standard solution (DX07 (His-Leu-Glu-Thr-Glu-Leu-His) 100 ng/mL) was added. After that, 150 µL of methanol was added to precipitate proteins, then centrifuged at 13,000 rpm for 5 min, and 160 µL supernatant was taken and dried with 40° C. N2, then reconstituted with 75 µL of 0.1% formic acid aqueous solution.
Pharmacokinetic parameters were calculated using the non-compartmental model of DAS 2.0 software. Both Cmax and Tmax are measured values; AUC, T½, CL and Vz are calculated by DAS 2.0.

[3] = SIPI-G9 1 mg/kg i.v., SD rats, individual rats, 1 mg/kg
[4] = male, SD, rat, plasma, sc, 5 mg/kg, Plasma G-9 concentration, Mean, SIPI-G9 5 mg/kg s.c., SD rats, n=3
[5] = male, SD, rat, plasma, sc, 5 mg/kg, Plasma G-9 concentration, SIPI-G9 5 mg/kg single subcutaneous injection, SD rats, individual rats
[6] = rat, in vivo, iv, 1 mg/kg, Mean
[7] = rat, in vivo, sc, 5 mg/kg, Mean

recovery ([1]; incubation time 0 min): 100%
recovery ([1]; incubation time 2 min): 98.8 ± 4.6%
recovery ([1]; incubation time 5 min): 98.3 ± 2.9%
recovery ([1]; incubation time 10 min): 96.3 ± 4.9%
recovery ([1]; incubation time 30 min): 95.9 ± 1%
recovery ([1]; incubation time 60 min): > 90%
T1/2 [2, 3]: 8.50 min and 7.50 min
Vd [2, 3]: 2.23 L/kg and 1.29 L/kg
Plasma G-9 concentration ([2]; SIPI-G9 1 mg/kg single intravenous injection, SD rats, 3 min, individual rats, 1 mg/kg): 714 ng/mL and 573 ng/mL and 737 ng/mL
Plasma G-9 concentration ([2]; SIPI-G9 1 mg/kg single intravenous injection, SD rats, 6 min, individual rats, 1 mg/kg): 265 ng/mL and 231 ng/mL and 295 ng/mL
Plasma G-9 concentration ([2]; SIPI-G9 1 mg/kg single intravenous injection, SD rats, 10 min, individual rats, 1 mg/kg): 124 ng/mL and 120 ng/mL and 377 ng/mL
Plasma G-9 concentration ([2]; SIPI-G9 1 mg/kg single intravenous injection, SD rats, 20 min, individual rats, 1 mg/kg): 33.5 ng/mL and 31.6 ng/mL and 80.0 ng/mL
Plasma G-9 concentration ([2]; SIPI-G9 1 mg/kg single intravenous injection, SD rats, 40 min, individual rats, 1 mg/kg): 6.09 ng/mL and 5.68 ng/mL and 6.78 ng/mL
Plasma G-9 concentration ([2]; SIPI-G9 1 mg/kg single intravenous injection, SD rats, 60 min, individual rats, 1 mg/kg): 1.33 ng/mL and 1.21 ng/mL and 2.00 ng/mL
Plasma G-9 concentration ([2]; SIPI-G9 5 mg/kg single subcutaneous injection, SD rats, 0 min, individual rats): 0 ng/mL
Plasma G-9 concentration ([2]; SIPI-G9 5 mg/kg single subcutaneous injection, SD rats, 40 min, individual rats, 5 mg/kg): 229 ng/mL
Plasma G-9 concentration ([2]; SIPI-G9 5 mg/kg single subcutaneous injection, SD rats, 120 min, individual rats, 5 mg/kg): 28.5 ng/mL and 33.5 ng/mL and 24.5 ng/mL
AUC(0-t) ([2]; male, SD, rat, in vivo, iv, 1 mg/kg): 114 ng·h/mL
AUC(0-t) ([2]; male, SD, rat, in vivo, sc, 5 mg/kg): 490 ng·h/mL
level at 0.05 h ([2]; male, SD, rat, plasma, iv, 1 mg/kg, Plasma G-9 concentration, Mean, SIPI-G9 1 mg/kg i.v., SD rats, 3 min, n=3): 675 ng/mL
level at 0.1 h ([2]; male, SD, rat, plasma, iv, 1 mg/kg, Plasma G-9 concentration, Mean, SIPI-G9 1 mg/kg i.v., SD rats, 6 min, n=3): 264 ng/mL
level at 10 min ([2]; male, SD, rat, plasma, iv, 1 mg/kg, Plasma G-9 concentration, Mean, SIPI-G9 1 mg/kg i.v., SD rats, 10 min, n=3): 207 ng/mL
level at 20 min ([2]; male, SD, rat, plasma, iv, 1 mg/kg, Plasma G-9 concentration, Mean, SIPI-G9 1 mg/kg i.v., SD rats, 20 min, n=3): 48.4 ng/mL
level at 40 min ([2]; male, SD, rat, plasma, iv, 1 mg/kg, Plasma G-9 concentration, Mean, SIPI-G9 1 mg/kg i.v., SD rats, 40 min, n=3): 6.18 ng/mL
level at 1 h ([2]; male, SD, rat, plasma, iv, 1 mg/kg, Plasma G-9 concentration, Mean, SIPI-G9 1 mg/kg i.v., SD rats, 60 min, n=3): 1.51 ng/mL
level at 0.05 h ([2]; male, SD, rat, plasma, sc, 5 mg/kg, Plasma G-9 concentration, Mean, SIPI-G9 5 mg/kg s.c., SD rats, 3 min, n=3): 699 ng/mL
level at 0.1 h ([2]; male, SD, rat, plasma, sc, 5 mg/kg, Plasma G-9 concentration, Mean, SIPI-G9 5 mg/kg s.c., SD rats, 6 min, n=3): 1020 ng/mL
level at 10 min ([2]; male, SD, rat, plasma, sc, 5 mg/kg, Plasma G-9 concentration, Mean, SIPI-G9 5 mg/kg s.c., SD rats, 10 min, n=3): 796 ng/mL
level at 20 min ([2]; male, SD, rat, plasma, sc, 5 mg/kg, Plasma G-9 concentration, Mean, SIPI-G9 5 mg/kg s.c., SD rats, 20 min, n=3): 408 ng/mL
level at 40 min ([2]; male, SD, rat, plasma, sc, 5 mg/kg, Plasma G-9 concentration, Mean, SIPI-G9 5 mg/kg s.c., SD rats, 40 min, n=3): 228 ng/mL
level at 1 h ([2]; male, SD, rat, plasma, sc, 5 mg/kg, Plasma G-9 concentration, Mean, SIPI-G9 5 mg/kg s.c., SD rats, 60 min, n=3): 131 ng/mL
level at 2 h ([2]; male, SD, rat, plasma, sc, 5 mg/kg, Plasma G-9 concentration, Mean, SIPI-G9 5 mg/kg s.c., SD rats, 120 min, n=3): 28.8 ng/mL
level at 3 h [2, 4]: 6.01 ng/mL
level at 4 h [2, 4]: 0.708 ng/mL
level at 0.05 h ([2]; male, SD, rat, plasma, sc, 5 mg/kg, Plasma G-9 concentration, SIPI-G9 5 mg/kg single subcutaneous injection, SD rats, 3 min, individual rats): 758 ng/mL
level at 0.1 h ([2]; male, SD, rat, plasma, sc, 5 mg/kg, Plasma G-9 concentration, SIPI-G9 5 mg/kg single subcutaneous injection, SD rats, 6 min, individual rats): 904 ng/mL
level at 10 min ([2]; male, SD, rat, plasma, sc, 5 mg/kg, Plasma G-9 concentration, SIPI-G9 5 mg/kg single subcutaneous injection, SD rats, 10 min, individual rats): 633 ng/mL
level at 20 min ([2]; male, SD, rat, plasma, sc, 5 mg/kg, Plasma G-9 concentration, SIPI-G9 5 mg/kg single subcutaneous injection, SD rats, 20 min, individual rats): 324 ng/mL
level at 40 min ([2]; male, SD, rat, plasma, sc, 5 mg/kg, Plasma G-9 concentration, SIPI-G9 5 mg/kg single subcutaneous injection, SD rats, 40 min, individual rats): 230 ng/mL
level at 1 h ([2]; male, SD, rat, plasma, sc, 5 mg/kg, Plasma G-9 concentration, SIPI-G9 5 mg/kg single subcutaneous injection, SD rats, 60 min, individual rats): 118 ng/mL
level at 3 h [2, 5]: 6.6 ng/mL
level at 4 h [2, 5]: 0.807 ng/mL
Fa (absolute bioavailability) ([2]; rat, in vivo): 96.6%
bioavailability ([2]; rat, in vivo, Fa (absolute bioavailability)): 79.2%
clearance ([2]; rat, in vivo, iv, 1 mg/kg): 151 mL/min/kg
clearance [2, 6]: 151 mL/min/kg
Cmax ([2]; rat, in vivo, iv, 1 mg/kg): 714 ng/mL
Cmax [2, 6]: 675 ng/mL
MRT last ([2]; rat, in vivo, iv, 1 mg/kg): 5.49 min
MRT last [2, 6]: 6.63 min
half-life ([2]; rat, in vivo, iv, 1 mg/kg, T1/2, Mean, SIPI-G9 1 mg/kg i.v., SD rats, n=3): 8.2 min
half-life ([2]; rat, in vivo, iv, 1 mg/kg, T1/2, SIPI-G9 1 mg/kg i.v., SD rats, individual rats): 8.59 min
Tmax ([2]; rat, in vivo, iv, 1 mg/kg): 3 min
Tmax [2, 6]: 3 min
Vd ([2]; rat, in vivo, iv, 1 mg/kg, Vd, Mean, SIPI-G9 1 mg/kg i.v., SD rats, n=3): 1.8 L/kg
Vd ([2]; rat, in vivo, iv, 1 mg/kg, Vd, SIPI-G9 1 mg/kg i.v., SD rats, individual rats): 1.87 L/kg
Cmax ([2]; rat, in vivo, sc, 5 mg/kg): 904 ng/mL
Cmax [2, 7]: 1020 ng/mL
MRT last ([2]; rat, in vivo, sc, 5 mg/kg): 34.3 min
MRT last [2, 7]: 33.9 min
Tmax ([2]; rat, in vivo, sc, 5 mg/kg): 6 min
Tmax [2, 7]: 7 min
Compound: CC(=O)N[C@H]1C(OC[C@H](NC(=O)[C@@H](NC(=O)[C@H](Cc2ccc(O)cc2)NC(=O)[C@@H](NC(=O)[C@H](CCC(N)=O)NC(=O)CN)[C@@H](C)OC2O[C@H](CO)[C@@H](O)[C@H](O)[C@H]2NC(C)=O)[C@@H](C)O)C(=O)NCC(=O)O)O[C@H](CO)[C@@H](O)[C@@H]1O (stereo partly drawn) [SIPI-G9, GQT(Glc)YTS(Glc)G] (H-GQT(X1)YTS(X1)G-OH)
stability in whole blood ([1]; compared with SP peptide): significantly higher than that of SP peptide

— patent US20230203095A1, “BIOLOGICAL PEPTIDE FOR TREATING LUNG DISEASES AND APPLICATION THEREOF” (SHANGHAI INSTITUTE OF PHARMACEUTICAL INDUSTRY CO., LTD., priority 2019, published 2023)
